Laboratory results as given in US20100041089A1, “IMPROVED METHOD FOR DETECTING CHEMICAL […]” (priority 2006, published 2010).

Test system: yeast genes (expressed mRNA)
Assay: DNA chip measurement of expressed mRNA of yeast genes after culture with a toxic chemical substance
Assay type: cell-based, Saccharomyces cerevisiae S288C
How it was run: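 Yeast S288C, YPD 25° C; toxicant at log phase, 2 h, sublethal growth-inhibiting conc.; no-chemical control. Hot SDS/acetate RNA extraction, oligo-dT mRNA, Cy3/Cy5-dUTP RT. Whole-genome chip, 65° C >12 h. Readout: treated/control intensity ratio, ≥2 significant.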

## COc1cc(CNC(=O)CCCCC=CC(C)C)ccc1O [(12), 8-Methyl-N-vanillyl-6-nonenamide]
Yeast gene YJL151C, cultured two hours with substance
  The level of expressed mRNA in the presence of chemical substance/The level of expressed mRNA in the absence of chemical substance: 1.3
Yeast gene YJL152W, cultured two hours with substance
  The level of expressed mRNA in the presence of chemical substance/The level of expressed mRNA in the absence of chemical substance: 1.0
Yeast gene YJL161W, cultured two hours with substance
  The level of expressed mRNA in the presence of chemical substance/The level of expressed mRNA in the absence of chemical substance: 1.0
Yeast gene YJL165C (stress protein genes)
  The level of expressed mRNA in the presence of chemical substance/The level of expressed mRNA in the absence of chemical substance: 0.9
Yeast gene YJL171C, cultured two hours with substance
  The level of expressed mRNA in the presence of chemical substance/The level of expressed mRNA in the absence of chemical substance: 1.0
Yeast gene YJL186W, cultured two hours with substance
  The level of expressed mRNA in the presence of chemical substance/The level of expressed mRNA in the absence of chemical substance: 0.6
Yeast gene YJR008W, cultured two hours with substance
  The level of expressed mRNA in the presence of chemical substance/The level of expressed mRNA in the absence of chemical substance: 1.3
Yeast gene YJR054W, cultured two hours with substance
  The level of expressed mRNA in the presence of chemical substance/The level of expressed mRNA in the absence of chemical substance: 0.9
Yeast gene YKL071W, cultured two hours with substance
  The level of expressed mRNA in the presence of chemical substance/The level of expressed mRNA in the absence of chemical substance: 1.0
Yeast gene YKL086W, cultured two hours with substance
  The level of expressed mRNA in the presence of chemical substance/The level of expressed mRNA in the absence of chemical substance: 0.6
Yeast gene YKL151C, cultured two hours with substance
  The level of expressed mRNA in the presence of chemical substance/The level of expressed mRNA in the absence of chemical substance: 1.0
Yeast gene YKL152C, cultured for two hours with substance
  The level of expressed mRNA in the presence of chemical substance/The level of expressed mRNA in the absence of chemical substance: 1.5
Yeast gene YKL153W, cultured two hours with substance
  The level of expressed mRNA in the presence of chemical substance/The level of expressed mRNA in the absence of chemical substance: 1.1
Yeast gene YKL195W, cultured two hours with substance
  The level of expressed mRNA in the presence of chemical substance/The level of expressed mRNA in the absence of chemical substance: 1.1
Yeast gene YKL213C, metabolism protein genes
  The level of expressed mRNA in the presence of chemical substance/The level of expressed mRNA in the absence of chemical substance: 0.9
Yeast gene YKR075C, cultured two hours with substance
  The level of expressed mRNA in the presence of chemical substance/The level of expressed mRNA in the absence of chemical substance: 2.3
Yeast gene YKR091W, cultured two hours with substance
  The level of expressed mRNA in the presence of chemical substance/The level of expressed mRNA in the absence of chemical substance: 0.9
Yeast gene YLR008C, cultured two hours with substance
  The level of expressed mRNA in the presence of chemical substance/The level of expressed mRNA in the absence of chemical substance: 3.5
Yeast gene YLR054C, cultured two hours with substance
  The level of expressed mRNA in the presence of chemical substance/The level of expressed mRNA in the absence of chemical substance: 1.1
Yeast gene YLR103C, DNA repair protein genes, cultured two hours with substance
  The level of expressed mRNA in the presence of chemical substance/The level of expressed mRNA in the absence of chemical substance: 1.6
Yeast gene YLR149C, cultured two hours with substance
  The level of expressed mRNA in the presence of chemical substance/The level of expressed mRNA in the absence of chemical substance: 2.0
Yeast gene YLR152C, cultured two hours with substance
  The level of expressed mRNA in the presence of chemical substance/The level of expressed mRNA in the absence of chemical substance: 1.0
Yeast gene YLR194C, cultured two hours with substance
  The level of expressed mRNA in the presence of chemical substance/The level of expressed mRNA in the absence of chemical substance: 1.6
Yeast gene YLR273C
  The level of expressed mRNA in the presence of chemical substance/The level of expressed mRNA in the absence of chemical substance: 0.9
Yeast gene YLR324W, cultured two hours with substance
  The level of expressed mRNA in the presence of chemical substance/The level of expressed mRNA in the absence of chemical substance: 0.8
Yeast gene YLR345W, cultured for two hours with substance
  The level of expressed mRNA in the presence of chemical substance/The level of expressed mRNA in the absence of chemical substance: 1.6
Yeast gene YLR346C, cultured two hours with substance
  The level of expressed mRNA in the presence of chemical substance/The level of expressed mRNA in the absence of chemical substance: 4.2
Yeast gene YLR348C, metabolism protein genes
  The level of expressed mRNA in the presence of chemical substance/The level of expressed mRNA in the absence of chemical substance: 0.9
Yeast gene YLR350W, cultured two hours with substance
  The level of expressed mRNA in the presence of chemical substance/The level of expressed mRNA in the absence of chemical substance: 1.8
Yeast gene YLR387C, cultured two hours with substance
  The level of expressed mRNA in the presence of chemical substance/The level of expressed mRNA in the absence of chemical substance: 1.1
Yeast gene YLR460C, cultured two hours with substance
  The level of expressed mRNA in the presence of chemical substance/The level of expressed mRNA in the absence of chemical substance: 0.4
Yeast gene YML054C, cultured for two hours with substance
  The level of expressed mRNA in the presence of chemical substance/The level of expressed mRNA in the absence of chemical substance: 1.8
Yeast gene YML117W, cultured two hours with substance
  The level of expressed mRNA in the presence of chemical substance/The level of expressed mRNA in the absence of chemical substance: 0.8
Yeast gene YMR009W, cultured two hours with substance
  The level of expressed mRNA in the presence of chemical substance/The level of expressed mRNA in the absence of chemical substance: 0.6
Yeast gene YMR067C, cultured two hours with substance
  The level of expressed mRNA in the presence of chemical substance/The level of expressed mRNA in the absence of chemical substance: 1.1
Yeast gene YMR090W, cultured two hours with substance
  The level of expressed mRNA in the presence of chemical substance/The level of expressed mRNA in the absence of chemical substance: 2.2
Yeast gene YMR095C, cultured two hours with substance
  The level of expressed mRNA in the presence of chemical substance/The level of expressed mRNA in the absence of chemical substance: 0.8
Yeast gene YMR097C, cultured two hours with substance
  The level of expressed mRNA in the presence of chemical substance/The level of expressed mRNA in the absence of chemical substance: 1.2
Yeast gene YMR102C, cultured two hours with substance
  The level of expressed mRNA in the presence of chemical substance/The level of expressed mRNA in the absence of chemical substance: 2.4
Yeast gene YMR107W, cultured two hours with substance
  The level of expressed mRNA in the presence of chemical substance/The level of expressed mRNA in the absence of chemical substance: 0.8
Yeast gene YMR180C, cultured two hours with substance
  The level of expressed mRNA in the presence of chemical substance/The level of expressed mRNA in the absence of chemical substance: 1.2
Yeast gene YMR184W, cultured two hours with substance
  The level of expressed mRNA in the presence of chemical substance/The level of expressed mRNA in the absence of chemical substance: 1.7
Yeast gene YMR191W, cultured two hours with substance
  The level of expressed mRNA in the presence of chemical substance/The level of expressed mRNA in the absence of chemical substance: 1.8
Yeast gene YMR215W, cultured two hours with the chemical substance
  The level of expressed mRNA in the presence of chemical substance/The level of expressed mRNA in the absence of chemical substance: 0.4
Yeast gene YMR295C, cultured two hours with substance
  The level of expressed mRNA in the presence of chemical substance/The level of expressed mRNA in the absence of chemical substance: 1.1
Yeast gene YMR315W, cultured two hours with substance
  The level of expressed mRNA in the presence of chemical substance/The level of expressed mRNA in the absence of chemical substance: 2.0
Yeast gene YMR316W, cultured two hours with substance
  The level of expressed mRNA in the presence of chemical substance/The level of expressed mRNA in the absence of chemical substance: 1.9
Yeast gene YNL044W, cultured two hours with substance
  The level of expressed mRNA in the presence of chemical substance/The level of expressed mRNA in the absence of chemical substance: 1.0
Yeast gene YNL045W, metabolism protein genes
  The level of expressed mRNA in the presence of chemical substance/The level of expressed mRNA in the absence of chemical substance: 0.9
Yeast gene YNL074C, cultured two hours with substance
  The level of expressed mRNA in the presence of chemical substance/The level of expressed mRNA in the absence of chemical substance: 0.9
